Legend:
Assay in all cases: relative viability (nuclei count vs DMSO), 5 days (fraction); higher = more cells survive
[1] = compound: Cn1cnc2c(F)c(Nc3ccc(Br)cc3Cl)c(C(=O)NOCCO)cc21 [Selumetinib] + Cc1nc(Nc2ncc(C(=O)Nc3c(C)cccc3Cl)s2)cc(N2CCN(CCO)CC2)n1 [Dasatinib] (partner 0.075 µM)
Procedure, shortened: (§1)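 Lung cancer cell lines, seeded in 1536-well plates, were treated the following day by pin tool with a single drug or with five library-drug doses (not always all listed) in √10 steps on top of a fixed anchor-drug dose. Cells were fixed and nuclei stained in one step after 5 days, and nuclei were counted. Relative viability is the nuclei count for treated wells divided by that for vehicle wells, reported as medians of duplicate plates.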

[2] = compound: Cn1cnc2c(F)c(Nc3ccc(Br)cc3Cl)c(C(=O)NOCCO)cc21 [Selumetinib] + O=C(CCCCCCC(=O)Nc1ccccc1)NO [Vorinostat] (partner 1 µM)
Procedure, shortened: as §1

[3] = compound: Cn1cnc2c(F)c(Nc3ccc(Br)cc3Cl)c(C(=O)NOCCO)cc21 [Selumetinib] + Nc1ncn([C@H]2C[C@H](O)[C@@H](CO)O2)c(=O)n1 [Decitabine] (partner 2 µM)
Procedure, shortened: as §1

[4] = compound: CC1(C)CCC(CN2CCN(c3ccc(C(=O)NS(=O)(=O)c4ccc(NCC5CCOCC5)c([N+](=O)[O-])c4)c(Oc4cnc5[nH]ccc5c4)c3)CC2)=C(c2ccc(Cl)cc2)C1 [Venetoclax] + O=C(CCCCCCC(=O)Nc1ccccc1)NO [Vorinostat] (partner 1 µM)
Procedure, shortened: as §1

Cell Line | relative viability ([1]; first compound 0.02 µM) | relative viability ([1]; first compound 0.06325 µM) | relative viability ([1]; first compound 0.2 µM) | relative viability ([1]; first compound 0.6325 µM) | relative viability ([2]; first compound 0.02 µM) | relative viability ([2]; first compound 0.06325 µM) | relative viability ([2]; first compound 0.2 µM) | relative viability ([2]; first compound 0.6325 µM) | relative viability ([3]; first compound 0.02 µM) | relative viability ([3]; first compound 0.06325 µM) | relative viability ([3]; first compound 0.2 µM) | relative viability ([3]; first compound 0.6325 µM) | relative viability ([4]; first compound 0.01 µM) | relative viability ([4]; first compound 0.03162 µM) | relative viability ([4]; first compound 0.1 µM) | relative viability ([4]; first compound 0.3162 µM) | relative viability ([4]; first compound 1 µM)
ABC-1 | 0.512 | 0.37 | 0.47 | 0.566 | 1.29 | 0.922 | 0.982 | 1.04 | 1.01 | 1.08 | 1.08 | 1.02 | 1.04 | 1.24 | 1.13 | 1.32 | 0.939
NCI-H727 | 0.308 | 0.299 | 0.267 | 0.279 | 1.01 | 0.741 | 0.709 | 0.553 | 0.762 | 0.578 | 0.606 | 0.583 | 1.04 | 1.4 | 1.08 | 1.12 | 1.11
NCI-H1666 | 0.759 | 0.831 | 0.837 | 0.729 | 1.02 | 0.902 | 1.06 | 0.86 | 0.758 | 0.682 | 0.689 | 0.71 | 0.997 | 1.05 | 1.07 | 1.02 | 1.07
NCI-H2126 | 0.484 | 0.483 | 0.498 | 0.515 | 0.727 | 0.664 | 0.595 | 0.583 | 0.559 | 0.513 | 0.564 | 0.56 | 0.848 | 0.798 | 0.687 | 0.774 | 0.699
NCI-H1793 | 0.393 | 0.375 | 0.296 | 0.294 | 0.512 | 0.422 | 0.445 | 0.365 | 0.494 | 0.527 | 0.468 | 0.401 | 0.685 | 0.958 | 0.703 | 0.801 | 0.623
LCLC-103H | 0.524 | 0.505 | 0.568 | 0.491 | 0.811 | 0.768 | 0.712 | 0.691 | 0.697 | 0.715 | 0.71 | 0.706 | 0.866 | 0.92 | 0.648 | 0.825 | 0.737
COR-L 105 | 0.328 | 0.239 | 0.224 | 0.22 | 0.779 | 0.829 | 0.598 | 0.47 | 0.637 | 0.507 | 0.452 | 0.45 | 0.789 | 0.763 | 0.866 | 0.899 | 0.818
HARA | 0.28 | 0.288 | 0.247 | 0.271 | 0.428 |  | 0.365 | 0.249 | 0.691 | 0.502 | 0.602 | 0.483 | 0.568 | 0.605 | 0.554 | 0.512 | 0.4
NCI-H2023 | 0.534 | 0.484 | 0.562 | 0.448 | 0.617 | 0.554 | 0.524 | 0.559 | 0.232 | 0.211 | 0.209 | 0.247 | 0.749 | 0.708 | 0.73 | 0.631 | 0.587
LXF-289 | 0.223 | 0.315 | 0.324 | 0.311 | 0.734 | 0.668 | 0.595 | 0.661 | 0.356 | 0.418 | 0.36 | 0.437 | 0.885 | 0.791 | 0.746 | 0.751 | 0.734
ChaGo-K-1 | 0.587 | 0.615 | 0.664 | 0.592 | 0.762 | 0.684 | 0.708 | 0.674 | 0.544 | 0.539 | 0.48 | 0.532 | 0.879 | 0.759 | 0.546 | 0.694 | 0.737
NCI-H2347 | 0.262 | 0.189 | 0.184 | 0.191 | 0.521 | 0.467 | 0.36 | 0.283 | 0.571 | 0.585 | 0.49 | 0.34 | 0.574 | 0.753 | 0.461 | 0.593 | 0.591
RERF-LC-KJ | 0.883 | 0.792 | 0.714 | 0.766 | 0.649 | 0.656 | 0.629 | 0.637 | 0.682 | 0.608 | 0.639 | 0.737 | 0.587 | 0.701 | 0.682 | 0.686 | 0.718
NCI-H1650 | 0.333 | 0.298 | 0.323 | 0.337 | 0.569 | 0.526 | 0.408 | 0.587 | 0.392 | 0.353 | 0.424 | 0.39 | 0.618 | 0.606 | 0.567 | 0.553 | 0.527
NCI-H596 | 0.625 | 0.546 | 0.565 | 0.483 | 0.368 | 0.557 | 0.578 | 0.606 | 0.927 | 0.936 | 0.922 | 0.83 | 0.649 | 0.626 | 0.587 | 0.568 | 0.714
NCI-H1734 | 0.506 | 0.531 | 0.466 | 0.549 | 0.787 | 0.814 | 0.694 | 0.85 | 0.53 | 0.479 | 0.502 | 0.528 | 0.613 | 0.876 | 0.711 | 0.761 | 0.76
NCI-H1915 | 0.302 | 0.281 | 0.225 | 0.174 | 0.598 | 0.492 | 0.504 | 0.377 | 0.28 | 0.263 | 0.239 | 0.246 | 0.49 | 0.533 | 0.478 | 0.54 | 0.512

— the supplement of paper PMC10307832
